Experimental data published in the supplement of paper PMC4862054.

Legend:
Experiment in all cases: drug sensitivity score (DSS), CellTox Green (DSS (AUC-based score)); higher = stronger drug effect (viability inhibition or cytotoxicity); extreme values may be limits of the assay
Conditions in all cases: incubation time: 72 h
MFM-223 = system: MFM-223
Summary of the method: (§1)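 Plates with 384 wells held compound at 5 concentrations in 10-fold steps over a 10,000-fold range specific to each compound. Breast cancer cell lines were added in 20 µl suspension and incubated 72 h, then read for CellTox Green and CellTiter-Glo signals, with each plate normalised to 0.1 % DMSO and a positive kill control. The drug sensitivity score is based on the area under the fitted dose-response curve.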

CAL-85-1 = system: CAL-85-1
Summary of the method: as §1

BT-474 = system: BT-474
Summary of the method: as §1

BT-549 = system: BT-549
Summary of the method: as §1

MDA-MB-436 = system: MDA-MB-436
Summary of the method: as §1

HDQ-P1 = system: HDQ-P1
Summary of the method: as §1

CAL-51 = system: CAL-51
Summary of the method: as §1

DU-4475 = system: DU-4475
Summary of the method: as §1

MCF-10A = system: MCF-10A
Summary of the method: as §1

CAL-148 = system: CAL-148
Summary of the method: as §1

Row | Compound | drug sensitivity score (MFM-223) | drug sensitivity score (CAL-85-1) | drug sensitivity score (BT-474) | drug sensitivity score (BT-549) | drug sensitivity score (MDA-MB-436) | drug sensitivity score (HDQ-P1) | drug sensitivity score (CAL-51) | drug sensitivity score (DU-4475) | drug sensitivity score (MCF-10A) | drug sensitivity score (CAL-148)
1 | Nc1nc(Cl)nc2c1ncn2[C@H]1C[C@H](O)[C@@H](CO)O1 [Cladribine] | 3.32 | 0 | 0 | 0 | 0 | 0 | 0 | 0 | 0 | 0
2 | C=CC[C@@H]1/C=C(\C)C[C@H](C)C[C@H](OC)[C@H]2O[C@@](O)(C(=O)C(=O)N3CCCC[C@H]3C(=O)O[C@H](/C(C)=C/[C@@H]3CC[C@@H](O)[C@H](OC)C3)[C@H](C)[C@@H](O)CC1=O)[C@H](C)C[C@@H]2OC [Tacrolimus] | 0 | 0 | 0 | 0 | 0 | 0 | 0 | 0 | 0.439 | 0
3 | CS(=O)(=O)c1ccc(C(=O)Nc2ccc(Cl)c(-c3ccccn3)c2)c(Cl)c1 [Vismodegib] | 0 | 0 | 0 | 0 | 0 | 0 | 0 | 0 | 0 | 0
4 | COc1cccc2cc(-c3nc([C@H]4CC[C@H](C(=O)O)CC4)n4ncnc(N)c34)[nH]c12 [OSI-027] | 0 | 0.0118 | 0 | 0 | 0 | 0 | 0 | 0 | 0 | 0
5 | N#CC[C@H](C1CCCC1)n1cc(-c2ncnc3[nH]ccc23)cn1 [Ruxolitinib] | 0 | 0 | 0 | 0 | 0 | 4.94 | 0 | 0 | 0 | 0
6 | CN1CC[C@H](c2c(O)cc(O)c3c(=O)cc(-c4ccccc4Cl)oc23)[C@H](O)C1 [Alvocidib] | 7.92 | 15.3 | 0.211 | 2.81 | 0 | 7.43 | 4.44 | 0 | 16.1 | 0
7 | CN1CCC(COc2cnc(-c3cccc(Cn4nc(-c5cccc(C#N)c5)ccc4=O)c3)nc2)CC1 | 0 | 0.655 | 0 | 0 | 0 | 0 | 0 | 0 | 0 | 0
8 | S=c1[nH]cnc2nc[nH]c12 [Mercaptopurine] | 0 | 0 | 0 | 0 | 0 | 0 | 0 | 0 | 0 | 0
9 | COc1cccc2c1C(=O)c1c(O)c3c(c(O)c1C2=O)C[C@@](O)(C(=O)CO)C[C@@H]3O[C@H]1C[C@H](N)[C@H](O)[C@H](C)O1 [Doxorubicin] | 1.83 | 1.33 | 0 | 0 | 0 | 0 | 10.9 | 0 | 0 | 1.99
10 | CN(C)C/C=C/C(=O)Nc1cc2c(Nc3ccc(F)c(Cl)c3)ncnc2cc1O[C@H]1CCOC1 [Afatinib] | 0 | 8 | 3.66 | 0 | 0 | 0 | 0 | 0 | 0 | 0
11 | CO[C@H]1C[C@@H]2CC[C@@H](C)[C@@](O)(O2)C(=O)C(=O)N2CCCC[C@H]2C(=O)O[C@H]([C@H](C)C[C@@H]2CC[C@@H](OC(=O)C(C)(CO)CO)[C@H](OC)C2)CC(=O)[C@H](C)/C=C(\C)[C@@H](O)[C@@H](OC)C(=O)[C@H](C)C[C@H](C)/C=C/C=C/C=C/1C [Temsirolimus] | 0 | 0 | 0 | 0 | 0 | 0 | 0 | 0 | 0 | 0
12 | CC(=O)O[C@]1(C(C)=O)CC[C@H]2[C@@H]3C=C(C)C4=CC(=O)CC[C@]4(C)[C@H]3CC[C@@]21C [Megestrol acetate] | 0 | 0 | 0 | 0 | 0 | 1.18 | 0 | 0 | 0 | 0
13 | Nc1ccn([C@@H]2O[C@H](CO)[C@@H](O)[C@@H]2O)c(=O)n1 [Cytarabine] | 0 | 0 | 0 | 0 | 0 | 0 | 13.1 | 0 | 0.944 | 7.92
14 | O=C(c1ccc(C(=O)N2CCC(N3CCCC3)CC2)c(Nc2ccccc2)c1)N1CCC(N2CCCC2)CC1 [UNC1215] | 0 | 0 | 0 | 0 | 0 | 0 | 0 | 0 | 0 | 0
15 | COc1cc(Nc2ncc3c(n2)-c2ccc(Cl)cc2C(c2c(F)cccc2OC)=NC3)ccc1C(=O)O [Alisertib] | 0 | 1.48 | 2.03 | 5.31 | 0 | 0 | 27.9 | 0 | 3.47 | 9.1
16 | Cc1ccc(F)c(NC(=O)Nc2ccc(-c3cccc4[nH]nc(N)c34)cc2)c1 [Linifanib] | 0 | 0 | 0 | 0 | 0 | 0 | 0 | 0 | 0 | 0
17 | CCN1CCN(c2ccc(Nc3cc(N(C)C(=O)Nc4c(Cl)c(OC)cc(OC)c4Cl)ncn3)cc2)CC1 [NVP-BGJ398] | 0 | 0 | 0 | 0 | 0 | 0 | 0 | 0 | 0 | 0
18 | C=CCNC1=C2C[C@@H](C)C[C@H](OC)[C@H](O)[C@@H](C)/C=C(\C)[C@H](OC(N)=O)[C@@H](OC)/C=C\C=C(/C)C(=O)NC(=CC1=O)C2=O [Tanespimycin] | 0 | 7.62 | 7.84 | 0 | 0 | 10.1 | 10.9 | 7.07 | 15.9 | 15.9
19 | CC[C@]1(O)C[C@@H]2CN(CCc3c([nH]c4ccccc34)[C@@](C(=O)OC)(c3cc4c(cc3OC)N(C)[C@H]3[C@@](O)(C(=O)OC)[C@H](OC(C)=O)[C@]5(CC)C=CCN6CC[C@]43[C@@H]65)C2)C1 [Vinblastine] | 12.2 | 6.07 | 8.39 | 10.2 | 0 | 0 | 22.3 | 0 | 12.5 | 0
20 | Cc1c2oc3c(C)ccc(C(=O)N[C@@H]4C(=O)N[C@H](C(C)C)C(=O)N5CCC[C@H]5C(=O)N(C)CC(=O)N(C)[C@@H](C(C)C)C(=O)O[C@@H]4C)c3nc-2c(C(=O)N[C@@H]2C(=O)N[C@H](C(C)C)C(=O)N3CCC[C@H]3C(=O)N(C)CC(=O)N(C)[C@@H](C(C)C)C(=O)O[C@@H]2C)c(N)c1=O [Dactinomycin] | 4.62 | 16.4 | 2.02 | 6.35 | 0 | 0 | 22.9 | 0 | 15.4 | 21.3
21 | C[C@]1(c2nc3c(C(N)=O)cccc3[nH]2)CCCN1 [Veliparib] | 0 | 0.454 | 0 | 0 | 0 | 0 | 0 | 0 | 0 | 2.57
22 | OC[C@H]1O[C@@H](n2cnc3c2N=CNC[C@H]3O)C[C@@H]1O [Pentostatin] | 0 | 0 | 0 | 0 | 0 | 0 | 0 | 0 | 0 | 0
23 | Clc1ccc(C(c2ccccc2Cl)C(Cl)Cl)cc1 (stereo not given) [Mitotane] | 0 | 0 | 0 | 0 | 0 | 0 | 0 | 0 | 0 | 0
